Columns and labels:
CYP1A2 = molecular target: T1, CYP1A2 (Homo sapiens, UniProt P05177); experiment: Inhibitory effect on CYP coenzyme activity, human liver microsomes; format: in vitro ADME; details: 10 μM compound, human liver microsomes 0.25 mg/mL, substrate phenacetin, 15 minutes
T1 construct: human liver microsomes (0.25 mg/mL); from tissue; host or cells: human liver microsomes
T1 sequence (P05177 1-516): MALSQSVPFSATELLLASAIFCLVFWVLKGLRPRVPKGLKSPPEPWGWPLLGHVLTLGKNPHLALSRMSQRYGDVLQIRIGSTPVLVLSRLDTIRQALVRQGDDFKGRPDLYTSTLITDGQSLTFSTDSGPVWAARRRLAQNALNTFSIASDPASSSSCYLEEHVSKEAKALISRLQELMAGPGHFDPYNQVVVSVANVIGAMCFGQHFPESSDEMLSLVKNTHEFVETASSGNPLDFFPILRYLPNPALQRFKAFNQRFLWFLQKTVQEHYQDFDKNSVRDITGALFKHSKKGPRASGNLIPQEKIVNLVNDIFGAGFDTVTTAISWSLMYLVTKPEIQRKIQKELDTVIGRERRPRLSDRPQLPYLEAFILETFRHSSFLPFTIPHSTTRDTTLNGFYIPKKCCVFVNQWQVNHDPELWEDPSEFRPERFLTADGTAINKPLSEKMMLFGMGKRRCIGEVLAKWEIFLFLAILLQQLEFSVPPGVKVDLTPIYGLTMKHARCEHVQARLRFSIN
In short: (§1)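 Activity (% of vehicle control) from LC-MS/MS MRM quantitation of substrate metabolites. HLM 0.25 mg/mL, pH 7.4 phosphate, cocktail of phenacetin 50 μM, diclofenac 10 μM, S-mephenytoin 100 μM, dextromethorphan 5 μM, midazolam 2.5 μM; test compound 10 μM; 37 °C, 5 min preincubation plus 15 min with NADPH system.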

CYP2C9 = molecular target: T2, CYP2C9 (Homo sapiens, UniProt P11712); experiment: as above; format: in vitro ADME; details: 10 μM compound, human liver microsomes 0.25 mg/mL, substrate diclofenac, 15 minutes
T2 construct: human liver microsomes (0.25 mg/mL); from tissue; host or cells: human liver microsomes
In short: as §1

CYP3A4 = molecular target: T3, CYP3A4 (Homo sapiens, UniProt P08684); experiment: as above; format: in vitro ADME; details: 10 μM compound, human liver microsomes 0.25 mg/mL, substrate midazolam, 15 minutes
T3 construct: human liver microsomes (0.25 mg/mL); from tissue; host or cells: human liver microsomes
In short: as §1

CYP2C19 = molecular target: T4, CYP2C19 (Homo sapiens, UniProt P33261); experiment: as above; format: in vitro ADME; details: 10 μM compound, human liver microsomes 0.25 mg/mL, substrate S-mephenytoin, 15 minutes
T4 construct: human liver microsomes (0.25 mg/mL); from tissue; host or cells: human liver microsomes
In short: as §1

[1] = Liver microsome stability; format: in vitro ADME; details: 1 μM compound, 37° C., 30 minutes, NADPH; for Human (%) amount of substrate remaining after the reaction: human liver microsomes 0.25 mg/mL; for Mouse (%) amount of substrate remaining after the reaction: mouse liver microsomes 0.25 mg/mL; for Rat (%) amount of substrate remaining after the reaction: rat liver microsomes 0.25 mg/mL; for Dog (%) amount of substrate remaining after the reaction: dog liver microsomes 0.25 mg/mL
In short: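 Human, dog, rat and mouse liver microsomes (0.25 mg/mL) with 1 μM compound in 0.1 M phosphate buffer pH 7.4, preincubated 5 min at 37° C, then incubated 30 min at 37° C with NADPH-generating system. Reaction stopped with acetonitrile plus internal standard; remaining parent quantified by LC-MS/MS.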

Tau-BiFC cells = experiment: Cell viability (stained nuclei count) in Tau-BiFC cells; format: cell-based; details: 10 μM compound, 48 hours; Forskolin-only group = 100% cell viability
In short: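 Tau-BiFC cells co-treated 48 h with 30 μM forskolin and compounds (1, 3, 10 μM screen; 0.01–30 μM dose-response). BiFC fluorescence normalized to forskolin-only (100% aggregation) minus untreated gives aggregation inhibition and IC50; viability as Hoechst-stained nuclei count relative to forskolin-only.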

T4 sequence (P33261 whole entry): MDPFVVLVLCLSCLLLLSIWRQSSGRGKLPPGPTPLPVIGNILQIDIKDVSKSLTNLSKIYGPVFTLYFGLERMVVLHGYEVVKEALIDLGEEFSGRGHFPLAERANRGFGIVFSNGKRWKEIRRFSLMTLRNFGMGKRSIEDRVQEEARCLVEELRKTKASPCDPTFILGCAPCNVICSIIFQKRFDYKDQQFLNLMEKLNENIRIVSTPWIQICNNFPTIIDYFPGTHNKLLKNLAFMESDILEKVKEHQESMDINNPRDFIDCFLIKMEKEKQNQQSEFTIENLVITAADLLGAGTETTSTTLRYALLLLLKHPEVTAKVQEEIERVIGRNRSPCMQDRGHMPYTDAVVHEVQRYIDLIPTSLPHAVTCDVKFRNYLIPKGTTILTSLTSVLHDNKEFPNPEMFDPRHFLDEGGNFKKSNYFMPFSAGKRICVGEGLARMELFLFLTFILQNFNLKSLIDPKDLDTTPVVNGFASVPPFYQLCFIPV
T3 sequence (P08684 whole entry): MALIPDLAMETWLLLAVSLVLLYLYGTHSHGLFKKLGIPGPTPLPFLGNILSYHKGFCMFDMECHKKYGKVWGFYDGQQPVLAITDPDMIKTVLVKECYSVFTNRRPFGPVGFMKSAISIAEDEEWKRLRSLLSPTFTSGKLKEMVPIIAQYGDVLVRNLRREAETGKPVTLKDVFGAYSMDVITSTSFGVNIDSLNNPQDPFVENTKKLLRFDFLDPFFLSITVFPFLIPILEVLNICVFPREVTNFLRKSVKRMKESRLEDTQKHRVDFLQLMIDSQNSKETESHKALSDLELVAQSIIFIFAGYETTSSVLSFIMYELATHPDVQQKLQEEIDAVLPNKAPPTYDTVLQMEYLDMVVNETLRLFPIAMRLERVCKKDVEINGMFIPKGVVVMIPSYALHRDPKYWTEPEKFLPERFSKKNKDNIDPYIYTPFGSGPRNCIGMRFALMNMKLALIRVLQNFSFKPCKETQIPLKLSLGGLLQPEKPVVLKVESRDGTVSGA
T2 sequence (P11712 whole entry): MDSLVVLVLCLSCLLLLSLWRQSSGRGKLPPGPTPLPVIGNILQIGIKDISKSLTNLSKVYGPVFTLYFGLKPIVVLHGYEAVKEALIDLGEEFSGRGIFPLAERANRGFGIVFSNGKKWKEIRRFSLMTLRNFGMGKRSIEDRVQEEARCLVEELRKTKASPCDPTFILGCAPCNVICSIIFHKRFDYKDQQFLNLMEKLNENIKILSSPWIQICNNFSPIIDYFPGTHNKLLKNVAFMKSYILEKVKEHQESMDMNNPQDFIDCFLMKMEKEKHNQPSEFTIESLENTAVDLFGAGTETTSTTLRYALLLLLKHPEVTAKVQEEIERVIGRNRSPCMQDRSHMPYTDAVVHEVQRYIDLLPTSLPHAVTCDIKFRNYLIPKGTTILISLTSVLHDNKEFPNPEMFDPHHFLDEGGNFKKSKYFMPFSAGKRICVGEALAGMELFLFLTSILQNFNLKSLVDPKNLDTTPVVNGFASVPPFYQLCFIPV

Row | Structure (SMILES) | CYP1A2 coenzyme activity (%) with respect to control group not treated (CYP1A2) [%] | CYP2C9 coenzyme activity (%) with respect to control group not treated (CYP2C9) [%] | CYP3A4 coenzyme activity (%) with respect to control group not treated (CYP3A4) [%] | CYP2C19 coenzyme activity (%) with respect to control group not treated (CYP2C19) [%] | Human (%) amount of substrate remaining after the reaction [1] [%] | Mouse (%) amount of substrate remaining after the reaction [1] [%] | Rat (%) amount of substrate remaining after the reaction [1] [%] | Cell viability (% @10 μM) (Tau-BiFC cells) [%] | Dog (%) amount of substrate remaining after the reaction [1] [%]
1 | CC(C)n1c(=O)oc2ccc(NN=C(C#N)C#N)cc21 [Compound 29, (3-isopropyl-2-oxo-2,3-dihydrobenzo[d]oxazol-5-yl)carbonohydrazonoyl dicyanide] | 97.3 | 4.7 | >100 | 91.3 | >100 | 88.9 | 96.4 | 133 | 
2 | CC(C)n1c(=O)n(C)c2ccc(NN=C(C#N)C#N)cc21 [Compound 36, (3-isopropyl-1-methyl-2-oxo-2,3-dihydro-1H-benzo[d]imidazol-5-yl)carbonohydrazonoyl dicyanide] | 93.7 | 36.6 | 95.8 | 89.5 | >100 | 89.4 | 86.4 | 104 | 
3 | Cn1ccc2c(NN=C(C#N)C#N)cccc2c1=O [Compound 5, (2-methyl-1-oxo-1,2-dihydroisoquinolin-5-yl)carbonohydrazonoyl dicyanide] | 70.7 | 29.1 | 88.6 | >100 | 98.1 | 92.9 | >100 | 41.4 | >100
4 | CC(C)n1ccc2ccc(NN=C(C#N)C#N)cc2c1=O [Compound 3, (2-isopropyl-1-oxo-1,2-dihydroisoquinolin-7-yl)carbonohydrazonoyl dicyanide] | 50.2 | 78.5 | >100 | 98.2 | 57.4 | 10.1 | 44.4 | 112 | 6.4
5 | Cn1c(=O)n(C)c2cc(NN=C(C#N)C#N)ccc21 [Compound 22, (1,3-dimethyl-2-oxo-2,3-dihydro-1H-benzo[d]imidazol-5-yl)carbonohydrazonoyl dicyanide] | 93.5 | 99 | >100 | >100 | 80.6 | 63.1 | 91.6 | 120.7 | 92.2
6 | CC(C)n1c(=O)sc2cc(NN=C(C#N)C#N)ccc21 [Compound 18, (3-isopropyl-2-oxo-2,3-dihydrobenzo[d]thiazol-6-yl)carbonohydrazonoyl dicyanide] | 81.4 | 7.5 | 78.3 | 63.2 | 85.1 | 71.3 | 70.8 | 110.7 | 93.8

— US12590066B2, “Fused-heterocyclyl-carbonohydrazonoyl dicyanide compounds and use thereof” (KOREA INSTITUTE OF SCIENCE AND TECHNOLOGY, priority 2020, dated 2026)
